# Reference: patent US20130309380A1, “METHODS FOR PRESERVING FRESH PRODUCE” (NatureSeal, Inc., priority 2003, published 2013)
# What was measured:
# Red Delicious apples = assay: Evaluation of sliced Red Delicious apples preserved with fresh produce preservative (scores); settings: for Color / Flavor / Moistness / Texture: scale 0-10; for color/appearance score: scale to 10
# Description: (§1) The texture, flavor, and moistness of the fruit were evaluated by tasting fruit samples. The color and/or appearance was also evaluated by visual inspection. The color, texture, moistness and flavor were then evaluated according to a scale of either 1 to 10, with 10 being the value assigned to a freshly cut piece of comparative fruit or vegetable. A value of less than 7 is not acceptable.
# (§2) Whole Red Delicious apples were rinsed with tap water, sanitized with a sodium hypochlorite solution containing 100 ppm chlorine, then cored and sliced. The apple slices were immersed in water for 0.5 to 2 minutes. Then the apple slices were dipped into produce preservative solution containing 4% ascorbic acid and 1.59% K2CO3 having a pH 5.69 for 1 minute. The slices were removed from the solution and drained for 1-2 minutes, sealed in polyethylene bags, and stored at 2-5° C. For controls, sliced apples either not treated or were dipped into either 4% ascorbic acid with 0.66% NaOH to adjust the pH to 4.45. For comparison, sliced apples were dipped into a solution containing 4% ascorbic acid and 1.22% Na2CO3 and having a pH of 5.58.
# The apples were evaluated and scored on a scale of 0-10 at time intervals. A score of 10 means that the fruit's color and appearance is as good as fresh cut fruit. A score of 7 is the minimum acceptable appearance. Hardness was measured with QTS25.
# Red Delicious apples and Granny Smith apples were preserved with the fresh produce preservative as in Example 1 a, except that the preservative solution contained 4% ascorbic acid and 1% Li2CO3.
# Bartlett pears [1] = assay: Evaluation of sliced Bartlett pears preserved with fresh produce preservative (scores); design: key: 1–10 scale, 10 = freshly cut fruit; below 7 not acceptable; settings: for Color / Flavor / Moistness / Texture: scale to 10; for color/appearance score: scale to 10 (Table 5)
# Description: as §1, §2
# (§3) Bartlett pears were preserved with the fresh produce preservative as in Example 1a, with preservative solution that contained 4% ascorbic acid and 1.59% K2-CO3. For comparison, pears were treated with a comparative solution that contained 4% ascorbic acid and 1.22% Na2CO3.
# Bartlett pears were preserved with the fresh produce preservative as in Example 1a, except that the preservative solution contained 4% ascorbic acid and 1% Li2CO3.
# Bartlett pears [2] = assay: Hardness of sliced Bartlett pears
# Description: The firmness or hardness of the fruit is the force required for a probe to penetrate the fruit a given distance into the fruit. The firmness is determined using a Quality and Test System 25 and TA 40 probe from Stevens Company. The TA 40 probe a black acetate, 4.5 mm diameter, 20 mm long rod probe having a flat end. The following settings were employed in the QTS system: the test type is a compression test of one cycle, 0 second hold time, 0 second recovery, 5 g trigger point, 30 mm/min test speed, target unit distance, and a target value of 3 mm. The apple pieces were 1 cm thick.
# as §2, §3
# Granny Smith apples = assay: Evaluation of sliced Granny Smith apples preserved with fresh produce preservative (scores); settings: scale to 10
# Hass avocadoes = assay: Evaluation of sliced Hass avocadoes preserved with fresh produce preservative (scores)
# Description: as §1, §2
# Hass avocadoes were preserved with the fresh produce preservative as in Example 1a, except that the preservative solution contained 9.3% ascorbic acid and 5.7% MnCl2.4H2O.
# Sliced Hass avocadoes were preserved with the fresh produce preservative as in Example la, except that the preservative solution contained 6.5% ascorbic acid and 3.5% potassium chloride. For control, a 7% ascorbic acid solution was used.
smiles,measurement,setting,value
"O=C1O[C@H]([C@@H](O)CO)C(O)=C1O [Ascorbic Acid, ascorbic acid]",Color,Red Delicious apples; 0 hour,10
same,Flavor,Red Delicious apples; 0 hour,5
same,Moistness,Red Delicious apples; 0 hour,10
same,Texture,Red Delicious apples; 0 hour,10
same,Color,Red Delicious apples; 1 week at 2-5° C.,9.6
same,Flavor,Red Delicious apples; 1 week at 2-5° C.,7
same,Moistness,Red Delicious apples; 1 week at 2-5° C.,10
same,Texture,Red Delicious apples; 1 week at 2-5° C.,7.8
same,color/appearance score,Red Delicious apples; 1 week,6
same,Color,Red Delicious apples; 2 week at 2-5° C.,8.4
same,Flavor,Red Delicious apples; 2 week at 2-5° C.,7
same,Moistness,Red Delicious apples; 2 week at 2-5° C.,9
same,Texture,Red Delicious apples; 2 week at 2-5° C.,7
same,Color,Red Delicious apples; 1 day at 2-5° C.,10
same,Flavor,Red Delicious apples; 1 day at 2-5° C.,8
same,Moistness,Red Delicious apples; 1 day at 2-5° C.,10
same,Texture,Red Delicious apples; 1 day at 2-5° C.,9.8
same,color/appearance score,Red Delicious apples; 24 hours (app),9
same,color/appearance score,Red Delicious apples; 3 days,9
same,Color,Bartlett pears [1]; 0 hour,10
same,Flavor,Bartlett pears [1]; 0 hour,5
same,Moistness,Bartlett pears [1]; 0 hour,10
same,Texture,Bartlett pears [1]; 0 hour,10
same,Color,Bartlett pears [1]; 1 week,8.6
same,Flavor,Bartlett pears [1]; 1 week,8.8
same,Moistness,Bartlett pears [1]; 1 week,7
same,Texture,Bartlett pears [1]; 1 week,3
same,Color,Bartlett pears [1]; 2 weeks,6.4
same,Flavor,Bartlett pears [1]; 2 weeks,3.4
same,Texture,Bartlett pears [1]; 2 weeks,1
same,Color,Bartlett pears [1]; 1 day,10
same,Flavor,Bartlett pears [1]; 1 day,9
same,Moistness,Bartlett pears [1]; 1 day,10
same,Texture,Bartlett pears [1]; 1 day,9.6
same,color/appearance score,Bartlett pears [1]; 1 day,10
same,color/appearance score,Bartlett pears [1]; 2 days,6
same,Hardness,Bartlett pears [2]; 0 hour,2215 g
same,Hardness,Bartlett pears [2]; 1 week,315 g
same,Hardness,Bartlett pears [2]; 2 weeks,79 g
same,color/appearance score,Granny Smith apples; 1 week,6
same,color/appearance score,Granny Smith apples; 1 day,10
same,color/appearance score,Granny Smith apples; 3 days,10
same,color/appearance score,"Hass avocadoes; 1 day, scale to 10 (Table 6), listed as 6% Ascorbic Acid control, 6% Ascorbic Acid control",6
same,color/appearance score,"Hass avocadoes; 1 day, scale to 10 (Table 6), listed as 7% Ascorbic Acid control, 7% Ascorbic Acid control",7
same,color/appearance score,"Hass avocadoes; 1 day, scale to 10 (Table 6), listed as 8% Ascorbic Acid control, 8% Ascorbic Acid control",8.5
same,color/appearance score,"Hass avocadoes; 1 day, scale to 10 (Table 7)",7
same,color/appearance score,"Hass avocadoes; 2 days, scale to 10 (Table 7)",6
same,color/appearance score,"Hass avocadoes; 4 days, scale to 10 (Table 6)",6
